Assay results: US8686113B2 (priority 2009, dated 2014)
Converted amounts (≈) assume the structure as drawn. Where two headings read alike, the source gives them in different places. Non-standard residues stand in square brackets, D forms with d. Residues, ends and D or L forms follow the SMILES beside them. Hyp = O=C(O)[C@@H]1C[C@@H](O)CN1; Tle = CC(C)(C)[C@H](N)C(=O)O; Orn = NCCC[C@H](N)C(=O)O

Tests used:
[1] = tested on: P. aeruginosa 10 J. Wilson
Protocol: (§1) The minimum inhibitory concentrations (MIC) of the antimicrobial peptides and peptide derivatives were determined in microdilution assays. These used a continuous peptide dilution in sterile flat-bottomed 96-well microtiter plates (polystyrene, Greiner Bio-One GmbH, Frickenhausen, Germany) and a total volume of 100 μL per well. The aqueous peptide or peptidomimetic solutions were diluted with 1% TSB water, to obtain a final concentration of 256 μg/mL. 50 μL of the peptide or peptidomimetic solution was pipetted into the first well of each series and stirred. From this solution, 50 μL was transferred to the second well, stirred and again 50 μL was transferred to the next well, and so on. A double dilution series is obtained, beginning at 256 μg/mL in the first well to 125 ng/mL in the twelfth well. The bacteria, e.g. E. coli BL21 A1, were cultured overnight at 37° C. in nutrient broth (NB, Carl Roth GmbH+Co. KG, Karlsruhe, Germany). 50 μL of a 5×10^6 bacteria/mL suspension in 1% TSB was added to each well of the microtiter plate and thus a final concentration of the peptides or peptidomimetics from 128 μg/mL (well 1) to 62.5 ng/mL (well 12) was established in each series. The plates were incubated at 37° C. for 20 h and then the absorption was measured at 595 nm with a TECAN microtiter plate spectrophotometer (Tecan Trading AG, Mannedorf, Switzerland). The MIC values of all peptides and peptidomimetics were determined in triplicate. Sterile water was used as negative control.
(§2) The tests were in this case carried out in Mueller-Hinton medium (¼ concentrated), which is equivalent to 1% TSB.

[2] = tested on: P. vulgaris ATCC 6896
Protocol: as §1, §2

[3] = tested on: E. coli ATCC BAA-457; details: ¼ Muller-Hinton medium
Protocol: as §1, §2

[4] = tested on: S. typhimurium s5 (J. Weiser); details: ¼ Muller-Hinton medium
Protocol: as §1, §2

[5] = tested on: E. coli 045-849 SENTRY; details: ¼ Muller-Hinton medium
Protocol: as §1, §2

[6] = tested on: K. pneumoniae 012-3131
Protocol: as §1, §2

[7] = tested on: K. pneumoniae K6 ATCC 700603; details: ATCC 700603
Protocol: as §1, §2

[8] = tested on: P. aeruginosa 39324
Protocol: as §1, §2

[9] = tested on: K. pneumoniae ATCC 27799; details: ATCC 27799
Protocol: as §1, §2

[10] = tested on: S. typhimurium ATCC 700408
Protocol: as §1, §2

[11] = tested on: P. mirabilis ATCC 7002
Protocol: as §1, §2

[12] = tested on: S. typhimurium ATCC 14028
Protocol: as §1, §2

[13] = tested on: E. coli D31 J. Wilson; details: ¼ Muller-Hinton medium
Protocol: as §1, §2

[14] = tested on: S. saprophyticus 15305
Protocol: as §1, §2

[15] = mouse, serum
Protocol: For this, the peptides and peptidomimetics were dissolved in water, mouse serum was added and the peptide concentration was adjusted to 75 μg/mL. While shaking continuously, the mixture was incubated at 37° C. After 0, 30, 60, 120, 240 and 360 minutes, in each case an aliquot was taken and mixed with 15% aqueous trichloroacetic acid (Carl Roth GmbH & Co. KG; Karlsruhe, Germany). After incubation on ice for a further 10 minutes, the precipitated serum proteins were centrifuged off (5 min, 13400 rpm, MiniSpin, Eppendorf AG, Hamburg, Germany). The supernatant was removed, neutralized with 1 mol/L aqueous sodium hydroxide solution (Fluke Chemie GmbH, Buchs, Switzerland) and stored at −20° C. until analysis.
The supernatants were analyzed by RP-HPLC with a linear acetonitrile gradient (Biosolve BV, Valkenswaard, The Netherlands) in the presence of 0.1% trifluoroacetic acid (TFA, UV-grade, Fluka Chemie GmbH, Buchs, Switzerland) as ion-pairing reagent. The fractions were co-crystallized with α-cyanohydroxycinnamic acid (Bruker Daltonik GmbH; Bremen, Germany) as matrix (5.3 mg/mL in 50% acetonitrile in 0.1% aqueous TFA) and were analyzed with a tandem mass spectrometer (MALDI-TOF/TOF-MS, 4700 Proteomics Analyzer; Applied Biosystems GmbH, Weiterstadt, Germany) in the positive-ion reflector mode. The proportion of intact peptides and their degradation products or metabolites could thus be identified and quantified at the individual time points. The control used was 25% aqueous mouse serum, which was analyzed in parallel for the same time intervals.

[16] = tested on: E. coli BL21 A1; type: cell-based, Escherichia coli; details: BL21, 20 h
Summary of the method: (§3)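 Broth microdilution in 1% TSB with twofold peptide series, final 128 μg/mL to 62.5 ng/mL, against 5×10^6 bacteria/mL stock suspension added 1:1. Incubated 20 h at 37 °C, growth read by absorbance at 595 nm; MIC is the lowest concentration with no growth, determined in triplicate.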

[17] = mouse, serum, Half-life in 25% mouse serum, 25% aqueous mouse serum, 37° C., 75 μg/mL peptide
[18] = tested on: M. luteus 10240; assay: Growth inhibition assay (microdilution MIC); type: cell-based, Micrococcus luteus; details: 10240, 20 h
Summary of the method: as §3

[19] = tested on: Pseudomonas aeruginosa DSM 3227
Protocol: as §1
(§4) The peptides shown in Table 8 were investigated for their MIC against pathogenic bacteria such as E. coli DSM 10233, K. pneumoniae DSM 681 and P. aeruginosa DSM 3227.

[20] = tested on: Escherichia coli DSM 10233
Protocol: as §1, §4

[21] = tested on: Klebsiella pneumoniae DSM 681
Protocol: as §1, §4

[22] = tested on: bacterial proteases (E. coli BL21 A1 lysate); assay: Stability against bacterial proteases in E. coli lysate; type: in vitro ADME; details: E. coli lysate with 0.5 mg/mL protein concentration, 37° C.
Protocol: (§5) For the bacterial lysate, 500 mL of nutrient broth (Carl Roth GmbH+Co. KG, Karlsruhe) was inoculated with E. coli BL21 A1 and incubated overnight at 37° C. 2×250 mL bacterial suspension were centrifuged for 25 min at 5000 rpm and 4° C. in a Beckman Avanti™ J-20-XP centrifuge with JLA-10.500 rotor (Beckman Coulter, Fullerton, U.S.A.). The pellets were each suspended in 30 mL PBS (pH 7.4) and centrifuged again in a Beckman Allegra™ 2IR centrifuge (Beckman Coulter, Fullerton, U.S.A.). The pellets were each suspended in 10 mL PBS and were disrupted with ultrasound (Vibra-cell™ microtip, Fisher Bioblock Scientific, Illkirch, France) 2×5 min (750 W; amplitude 40%; 2 s on/3 s off) on ice. The bacterial lysates were combined and 1 mL aliquots were centrifuged at 15400 rpm for 20 min at 4° C. (Beckman Allegra™). The supernatants were removed and stored at −20° C. The protein content of the bacterial lysate was determined by protein determination according to Bradford.
(§6) A solution of 0.15 μg/mL peptide in bacterial lysate with protein content of 1.5 mg/mL or 0.5 mg/mL was incubated at 37° C. After 0, 30, 60, 120, 240 or 360 min, 200 μL was taken from each and the proteins were precipitated with 50 μL of 15% trichloroacetic acid. Then it was incubated for 10 min at 4° C. and then centrifuged for 5 min at 13000 rpm in a Minispin desktop centrifuge. 210 μL was taken from the supernatant and neutralized with 1 mol/L sodium hydroxide solution. The intact peptide and the degradation products were analyzed by HPLC. 60 μL of 3% aqueous acetonitrile with 0.1% trifluoroacetic acid (TFA) was added to the solution and 250 μL of the mixture was injected. After chromatographic separation, the constituents were identified by MALDI-TOF-MS,
(§7) In order to investigate the stability against bacterial proteases, a lysate was prepared from an overnight culture of E. coli BL21 A1 and the peptides were incubated in it. Using Bradford protein determination, the protein concentration was adjusted to 0.5 or 1.5 mg/mL.

[23] = 25% aqueous mouse serum, 37° C., 75 μg/mL peptide
[24] = Stability against bacterial proteases in E. coli lysate; type: in vitro ADME; details: E. coli BL21 A1 lysate (bacterial proteases), pH 7.4; E. coli lysate with 0.5 mg/mL protein concentration; read-out: percentage printed under half-life >240 min (peptide remaining)
Protocol: as §5, §6, §7
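Throughout, for Half-life in 25% mouse serum: intact peptide left at successive time points measured by reversed-phase HPLC with an acetonitrile gradient in the supernatant after precipitation of serum proteins.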

Compound: CC[C@H](C)[C@H](NC(=O)[C@H](CCCNC(=N)N)NC(=O)[C@H](CCCNC(=N)N)NC(=O)[C@@H]1C[C@@H](O)CN1C(=O)[C@@H]1CCCN1C(=O)[C@H](CCCNC(=N)N)NC(=O)[C@@H]1CCCN1C(=O)[C@H](CCCNC(=N)N)NC(=O)[C@@H]1CCCN1C(=O)[C@H](CC(C)C)NC(=O)[C@H](Cc1ccc(O)cc1)NC(=O)[C@@H]1CCCN1C(=O)[C@@H]1CCCN1C(=O)[C@H](CCCCN)NC(=O)[C@H](CC(=O)O)NC(=O)[C@@H](N)C(C)C)C(=O)N[C@@H](Cc1ccc(O)cc1)C(=O)N[C@@H](CC(N)=O)C(=O)N[C@@H](CCCNC(=N)N)C(N)=O [compound 24] (H-VDKPPYLPRPRP[Hyp]RRIYNR-NH2)
- MIC P. aeruginosa 10 J. Wilson [1]: 2 µg/mL (≈ 0.831 µM)
- MIC P. vulgaris ATCC 6896 ([2]; ATCC 6896): 128 µg/mL (≈ 53.2 µM)
- MIC E. coli SEQ 102ATCC # BAA-4 57 [3]: 4 µg/mL (≈ 1.66 µM)
- MIC S. typhimurium s5 (J. Weiser) [4]: 2 µg/mL (≈ 0.831 µM)
- MIC E. coli 045-849 SENTRY [5]: 2 µg/mL (≈ 0.831 µM)
- MIC K. pneumoniae 012-3131 [6]: 2 µg/mL (≈ 0.831 µM)
- MIC K. pneumoniae K6 ATCC 700603 [7]: 8 µg/mL (≈ 3.33 µM)
- MIC P. aeruginosa 39324 [8]: 4 µg/mL (≈ 1.66 µM)
- MIC K. pneumoniae ATCC 27799 [9]: 8 µg/mL (≈ 3.33 µM)
- MIC S. typhimurium ATCC 700408 [10]: 0.13 µg/mL (≈ 0.054 µM)
- MIC P. mirabilis ATCC 7002 ([11]; ATCC 7002): 128 µg/mL (≈ 53.2 µM)
- MIC S. typhimurium ATCC 14028 [12]: 2 µg/mL (≈ 0.831 µM)
- MIC E. coli D31 J. Wilson [13]: 1 µg/mL (≈ 0.416 µM)
- MIC S. saprophyticus 15305 [14]; 15305: 16 µg/mL (≈ 6.65 µM)
- half-life [15]: 0.583 h
- MIC E. coli BL21 A1 [16]: 8 µg/mL (≈ 3.33 µM)
- half-life [17]: 1 h
- MIC M. luteus 10240 [18]: 8 µg/mL (≈ 3.33 µM)

Compound: CC[C@H](C)[C@H](NC(=O)[C@H](CCCN)NC(=O)[C@H](CCCNC(=N)N)NC(=O)[C@@H]1CCCN1C(=O)[C@@H]1CCCN1C(=O)[C@H](CCCNC(=N)N)NC(=O)[C@@H]1CCCN1C(=O)[C@H](CCCNC(=N)N)NC(=O)[C@@H]1CCCN1C(=O)[C@H](CC(C)C)NC(=O)[C@H](Cc1ccc(O)cc1)NC(=O)[C@@H]1CCCN1C(=O)[C@@H]1CCCN1C(=O)[C@H](CCCCN)NC(=O)[C@H](CC(=O)O)NC(=O)[C@@H](N)C(C)C)C(=O)N[C@@H](Cc1ccc(O)cc1)C(=O)N[C@@H](CC(N)=O)C(=O)N[C@@H](CCCN)C(N)=O [compound 72] (H-VDKPPYLPRPRPPR[Orn]IYN[Orn]-NH2)
- half-life [15]: 2.92 h
- MIC P. aeruginosa DSM 3227 [19]: >32 µg/mL
- MIC E. coli DSM 10233 [20]: 32 µg/mL (≈ 13.9 µM)
- MIC K. pneumoniae DSM 681 [21]: 4 µg/mL (≈ 1.73 µM)
- Half-life in E. coli lysate [22]: 2.08 h
- Half-life in 25% mouse serum [23]: >6 h

Compound: CC(C)C[C@H](NC(=O)[C@H](Cc1ccc(O)cc1)NC(=O)[C@@H]1CCCN1C(=O)[C@@H]1CCCN1C(=O)[C@H](CCCCN)NC(=O)[C@H](CC(=O)O)NC(=O)[C@@H](N)C(C)C)C(=O)N1CCC[C@H]1C(=O)N[C@@H](CCCNC(=N)N)C(=O)N1CCC[C@H]1C(=O)N[C@@H](CCCNC(=N)N)C(=O)N1CCC[C@H]1C(=O)N1CCC[C@H]1C(=O)N[C@@H](CCCNC(=N)N)C(=O)N[C@@H](CCCN)C(=O)N[C@H](C(=O)N[C@@H](Cc1ccc(O)cc1)C(=O)N[C@@H](CC(N)=O)C(=O)N[C@@H](CCCN)C(N)=O)C(C)(C)C [compound 109] (H-VDKPPYLPRPRPPR[Orn][Tle]YN[Orn]-NH2)
- half-life [15]: 2.17 h
- MIC E. coli BL21 A1 [16]: 4 µg/mL (≈ 1.73 µM)
- remaining at 4 h, 0.15 μg/mL [24]: 90%
- Half-life in E. coli lysate [22]: >4 h
- MIC M. luteus 10240 [18]: 4 µg/mL (≈ 1.73 µM)

Compound: H-GKPRPYSPRPTSHPRPIRV-OH [compound 89]
- MIC P. aeruginosa 10 J. Wilson [1]: 16 µg/mL
- MIC P. vulgaris ATCC 6896 ([2]; ¼ Muller-Hinton medium): >
- MIC E. coli SEQ 102ATCC # BAA-4 57 [3]: 2 µg/mL
- MIC S. typhimurium s5 (J. Weiser) [4]: 1 µg/mL
- MIC E. coli 045-849 SENTRY [5]: 2 µg/mL
- MIC K. pneumoniae 012-3131 [6]: 4 µg/mL
- MIC K. pneumoniae K6 ATCC 700603 [7]: 8 µg/mL
- MIC P. aeruginosa 39324 [8]: 32 µg/mL
- MIC K. pneumoniae ATCC 27799 [9]: 8 µg/mL
- MIC S. typhimurium ATCC 700408 [10]: 0.5 µg/mL
- MIC P. mirabilis ATCC 7002 ([11]; ¼ Muller-Hinton medium): >
- MIC S. typhimurium ATCC 14028 [12]: 8 µg/mL
- MIC E. coli D31 J. Wilson [13]: 4 µg/mL
- MIC S. saprophyticus 15305 [14]; 15305: >64 µg/mL
- MIC E. coli BL21 A1 [16]: 4 µg/mL

Compound: H-GNNRPVYIPQPRPPHPRL-OH [compound 87]
- MIC P. aeruginosa 10 J. Wilson [1]: 32 µg/mL
- MIC P. vulgaris ATCC 6896 ([2]; ¼ Muller-Hinton medium): >
- MIC E. coli SEQ 102ATCC # BAA-4 57 [3]: 1 µg/mL
- MIC S. typhimurium s5 (J. Weiser) [4]: 0.5 µg/mL
- MIC E. coli 045-849 SENTRY [5]: 0.5 µg/mL
- MIC K. pneumoniae 012-3131 [6]: 16 µg/mL
- MIC K. pneumoniae K6 ATCC 700603 [7]: 16 µg/mL
- MIC P. aeruginosa 39324 [8]: 64 µg/mL
- MIC K. pneumoniae ATCC 27799 [9]: 4 µg/mL
- MIC S. typhimurium ATCC 700408 [10]: 0.13 µg/mL
- MIC P. mirabilis ATCC 7002 ([11]; ¼ Muller-Hinton medium): >
- MIC S. typhimurium ATCC 14028 [12]: 0.5 µg/mL
- MIC E. coli D31 J. Wilson [13]: 1 µg/mL
- MIC S. saprophyticus 15305 ([14]; ¼ Muller-Hinton medium): >
- MIC E. coli BL21 A1 [16]: 2 µg/mL
